Data: patent US8653092B2, “Tetrahydro-pyrido-pyrimidine derivatives” (Novartis AG, priority 2010, dated 2014)
Where two headings read alike, the source gives them in different places.

Columns and labels:
PI3K alpha = PI3K alpha (Homo sapiens (Human), UniProt P42336); experiment: Enzymatic PI3K alpha isoform inhibition (lipid kinase, Kinase-Glo luminescence); format: biochemical
murine B cells = experiment: Murine B cell activation: CD86 upregulation after anti-IgM stimulation; format: cell-based, mouse; conditions: Balb/c mouse splenocytes, anti-IgM 24 h, CD86 on CD19+ B cells, read-out: mCD86/IC50 CD86 [nmol l − 1]
Procedure: Spleens from Balb/c mice were collected, splenocytes were isolated and washed twice with RPMI containing 10% foetal bovine serum (FBS), 10 mM HEPES, 100 Units/mL penicilline/streptomycine. RPMI supplemented in this way is subsequently referred to as medium. The cells were adjusted to 2.5×10^6 cells/mL in medium and 200 μl cell suspension (5×10^6 cells) were added to the appropriate wells of 96 well plates.
Then the cells were stimulated by adding 50 μl anti-IgM mAb in medium (final concentration: 30 μg/mL). After incubation for 24 hours at 37° C., the cells were stained with the following antibody cocktails: anti-mouse CD86-FITC, anti-mouse CD69-PerCP-Cy5.5, anti-mouse CD19-PerCP for the assessment of B cells, and anti-mouse CD3-FITC, anti-mouse CD69-PE for the assessment of T cells (2 μl of each antibody/well). After one hour at room temperature (RT) in the dark the cells were transferred to 96 Deepwell plates. The cells were washed once with 1 mL PBS containing 2% FBS and after re-suspension in 200 μl the samples were analyzed on a FACS Calibur flow cytometer. Lymphocytes were gated in the FSC/SSC dot plot according to size and granularity and further analyzed for expression of CD19, CD3 and activation markers (CD86, CD69). Data were calculated from dot blots as percentage of cells positively stained for activation markers within the CD19+ or CD3+ population using BD CellQest Software.
For assessing the inhibitory property of compounds, compounds were first dissolved and diluted in DMSO followed by a 1:50 dilution in medium. Splenocytes from Balb/c mice were isolated, re-suspended and transfered to 96 well plates as described above (200 μl/well). The diluted compounds or solvent were added to the plates (25 μl) and incubated at 37° C. for 1 hour. Then the cultures were stimulated with 25 μl anti-IgM mAb/well (final concentration […]) for 24 hours at 37° C. and stained with anti-mouse CD86-FITC and anti-mouse CD19-PerCP (2 μl of each antibody/well). CD86 expression on CD19 positive B cells was quantified by flow cytometry as described above.

PI3K delta = PI3K delta (Homo sapiens (Human), UniProt O00329); experiment: Enzymatic PI3K delta isoform inhibition (lipid kinase, Kinase-Glo luminescence); format: biochemical; conditions: enzymatic assay
[1] = biological target: human phosphoinositide-3 kinase (PI3K) delta (Homo sapiens (Human), UniProt O00329); experiment: PI3K-mediated Akt 1/2 (S473) phosphorylation in Rat-1 cells (AlphaScreen SureFire); format: cell-based; conditions: Rat-1 cells overexpressing myristoylated human PI3K delta, p-Akt (Ser473); read-out: Cell PI3Kδ/ IC50 [umol l − 1]
Procedure: Rat-1 cells stably overexpressing a myristoylated form of the catalytic subunit of human phosphoinositide-3 kinase (PI3K) alpha, beta or delta were plated in 384-well plates at a density of 7500 (PI3K alpha), 6200 (PI3K beta), or 4000 (PI3K delta) cells in 30 ul complete growth medium (Dulbecco's modified Eagle's medium (DMEM high glucose) supplemented with 10% (v/v) fetal bovine serum, 1% (v/v) MEM non essential amino acids, 10 mM HEPES, 2 mM L-glutamine, 10 μg/mL puromycin and 1% (v/v) Penicillin/Streptomycin) and were incubated at […]/5% CO2/95% humidity for 24 h. Compounds were diluted in 384-well compound plates to obtain 8-point serial dilutions for 40 test compounds in 90% DMSO, as well as 4 reference compounds plus 16 high controls and 16 low (inhibited) controls. Predilution plates were prepared by dispensing pipetting 250 nl of compound solutions into 384-well polypropylen plates using a Hummingwell nanoliter dispensor. Compounds were prediluted by the addition of 49.75 ul complete growth medium. 10 ul of prediluted compound solution were transferred to the cell plate using a 384-well pipettor, resulting in a final DMSO concentration of 0.11%. Cells were incubated for 1 h at […]/5% CO2/95% humidity. The supernatant was removed, the cells were lysed in 20 ul of lysis buffer for AlphaScreen® SureFire® detection.
For detection of p-AKT (Ser473), the SureFire® p-Akt 1/2 (Ser473) Assay Kit (PerkinElmer, U.S.A) was used. 5 ul of cell lysate was transferred to 384-well low volume Proxiplates for detection using a 384-well pipettor. Addition of AlphaScreen® SureFire® reagents was done according to the manufacturer's protocol. First, 5 ul of reaction buffer plus activation buffer mix containing AlphaScreen® acceptor beads was added, the plate was sealed, and incubated on a plate shaker for 2 hours at room temperature. Second, 2 ul of dilution buffer containing AlphaScreen® donor beads was added, and the plate was incubated on plate shaker as above for a further 2 hours. The plate was read on an AlphaScreen® compatible plate reader, using standard AlphaScreen® settings.

[2] = test system: antibody production to sheep red blood cells (SRBC); experiment: Antibody production to sheep red blood cells (SRBC), plaque forming assay; format: in vivo, rat; conditions: OFA rats, 10 mg/kg bid orally d0-d3, spleens on d4
Procedure: In brief, OFA rats were injected i.v. with sheep erythrocytes on d0 and treated orally on four consecutive days (d0 to d3) with the compounds under investigation. Spleen cell suspensions were prepared on d4 and lymphocytes were plated onto soft agar in presence of indicator cells (SRBC) and complement. Lysis of the indicator cells due to secretion of SRBC-specific antibody (predominantly of the IgM subclass) and presence of complement yielded plaques. The number of plaques per plate were counted and expressed as number of plaques per spleen.
Immunization: Groups of five female OFA rats were immunized on day 0 with 2×10^8/ml SRBC (obtained from Laboratory Animal Services LAS, Novartis Pharma AG) in a volume of 0.5 ml per rat by i.v. injection. […]
On day 4, animals were euthanized with CO2 Spleens were removed, weighed, and deposited in plastic tubes containing 10 ml of cold (4° C.) Hank's balanced salt solution (HBSS; Gibco, pH 7.3, containing 1 mg Phenolred/100 ml) for each rat spleen. […] Lymphocyte numbers per spleen were determined by automated cell counter and spleen cell suspensions were adjusted to a cell concentration of 30×10^6/ml. […]
In addition, one ml of 0.7% agarose was prepared in plastic tubes and kept at 48° C. in a water bath. […] Plaques were counted with a microscope. […]

Sequence of PI3K alpha (P42336 other isoform, or with tags, fused parts or gaps): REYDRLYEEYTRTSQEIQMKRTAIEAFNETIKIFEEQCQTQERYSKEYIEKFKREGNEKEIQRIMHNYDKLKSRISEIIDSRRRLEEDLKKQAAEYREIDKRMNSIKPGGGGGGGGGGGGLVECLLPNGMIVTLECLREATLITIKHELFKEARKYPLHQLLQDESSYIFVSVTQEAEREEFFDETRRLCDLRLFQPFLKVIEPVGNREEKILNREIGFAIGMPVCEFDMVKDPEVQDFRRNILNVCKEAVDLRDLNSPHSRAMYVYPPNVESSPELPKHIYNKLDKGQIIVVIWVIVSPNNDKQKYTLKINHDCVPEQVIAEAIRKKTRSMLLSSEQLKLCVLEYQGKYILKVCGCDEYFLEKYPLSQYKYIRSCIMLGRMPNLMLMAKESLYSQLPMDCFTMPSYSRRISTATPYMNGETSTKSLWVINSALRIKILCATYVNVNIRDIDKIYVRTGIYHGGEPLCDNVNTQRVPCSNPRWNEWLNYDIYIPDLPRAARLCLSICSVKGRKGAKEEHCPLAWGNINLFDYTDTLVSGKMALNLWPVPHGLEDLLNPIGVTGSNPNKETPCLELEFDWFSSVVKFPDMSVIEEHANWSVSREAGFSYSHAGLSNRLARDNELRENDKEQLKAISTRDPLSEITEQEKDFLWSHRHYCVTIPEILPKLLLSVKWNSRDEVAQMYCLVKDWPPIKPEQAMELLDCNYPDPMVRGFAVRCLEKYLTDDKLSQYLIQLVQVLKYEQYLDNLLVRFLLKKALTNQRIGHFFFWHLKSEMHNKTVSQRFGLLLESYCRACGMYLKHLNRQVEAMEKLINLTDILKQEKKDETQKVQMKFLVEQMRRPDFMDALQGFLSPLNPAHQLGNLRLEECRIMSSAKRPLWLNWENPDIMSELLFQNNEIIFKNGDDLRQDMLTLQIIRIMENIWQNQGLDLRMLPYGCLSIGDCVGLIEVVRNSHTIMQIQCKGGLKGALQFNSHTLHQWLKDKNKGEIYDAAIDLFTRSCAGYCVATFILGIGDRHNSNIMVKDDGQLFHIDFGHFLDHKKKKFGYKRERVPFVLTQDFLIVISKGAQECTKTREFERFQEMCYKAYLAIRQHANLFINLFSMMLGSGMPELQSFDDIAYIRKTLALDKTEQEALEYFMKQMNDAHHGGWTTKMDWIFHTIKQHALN
Sequence of PI3K delta (O00329 other isoform, or with tags, fused parts or gaps linker GGGGGG): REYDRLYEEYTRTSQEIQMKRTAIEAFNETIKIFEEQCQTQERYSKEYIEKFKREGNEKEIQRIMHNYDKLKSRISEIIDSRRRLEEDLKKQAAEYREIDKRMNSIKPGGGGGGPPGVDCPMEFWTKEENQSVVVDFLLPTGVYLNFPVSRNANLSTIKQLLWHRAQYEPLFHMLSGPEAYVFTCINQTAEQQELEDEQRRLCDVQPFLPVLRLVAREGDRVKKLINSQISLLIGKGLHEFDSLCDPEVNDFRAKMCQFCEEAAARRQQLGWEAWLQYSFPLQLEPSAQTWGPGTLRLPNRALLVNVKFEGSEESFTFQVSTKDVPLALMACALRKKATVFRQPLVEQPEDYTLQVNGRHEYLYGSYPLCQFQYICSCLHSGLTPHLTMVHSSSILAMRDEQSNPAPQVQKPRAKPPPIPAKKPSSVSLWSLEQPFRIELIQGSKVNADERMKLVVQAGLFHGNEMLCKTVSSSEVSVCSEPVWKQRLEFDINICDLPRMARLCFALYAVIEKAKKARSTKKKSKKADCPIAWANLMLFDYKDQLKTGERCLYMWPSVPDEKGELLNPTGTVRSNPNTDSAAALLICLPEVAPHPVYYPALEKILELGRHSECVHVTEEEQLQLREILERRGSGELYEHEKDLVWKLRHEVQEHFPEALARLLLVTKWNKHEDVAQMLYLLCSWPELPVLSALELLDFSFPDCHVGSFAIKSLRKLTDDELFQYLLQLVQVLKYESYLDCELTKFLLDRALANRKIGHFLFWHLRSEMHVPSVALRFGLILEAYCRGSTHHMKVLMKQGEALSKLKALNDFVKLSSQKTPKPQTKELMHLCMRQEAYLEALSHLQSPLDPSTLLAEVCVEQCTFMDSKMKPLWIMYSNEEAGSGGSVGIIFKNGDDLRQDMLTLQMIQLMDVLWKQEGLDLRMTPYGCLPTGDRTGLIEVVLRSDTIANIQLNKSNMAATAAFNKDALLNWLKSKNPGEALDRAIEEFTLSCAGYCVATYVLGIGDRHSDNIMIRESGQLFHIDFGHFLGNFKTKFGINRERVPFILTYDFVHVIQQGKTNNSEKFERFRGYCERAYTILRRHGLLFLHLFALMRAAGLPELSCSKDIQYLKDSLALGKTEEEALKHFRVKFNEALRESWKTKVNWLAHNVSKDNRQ
Sequence of human phosphoinositide-3 kinase (PI3K) delta (O00329 whole entry): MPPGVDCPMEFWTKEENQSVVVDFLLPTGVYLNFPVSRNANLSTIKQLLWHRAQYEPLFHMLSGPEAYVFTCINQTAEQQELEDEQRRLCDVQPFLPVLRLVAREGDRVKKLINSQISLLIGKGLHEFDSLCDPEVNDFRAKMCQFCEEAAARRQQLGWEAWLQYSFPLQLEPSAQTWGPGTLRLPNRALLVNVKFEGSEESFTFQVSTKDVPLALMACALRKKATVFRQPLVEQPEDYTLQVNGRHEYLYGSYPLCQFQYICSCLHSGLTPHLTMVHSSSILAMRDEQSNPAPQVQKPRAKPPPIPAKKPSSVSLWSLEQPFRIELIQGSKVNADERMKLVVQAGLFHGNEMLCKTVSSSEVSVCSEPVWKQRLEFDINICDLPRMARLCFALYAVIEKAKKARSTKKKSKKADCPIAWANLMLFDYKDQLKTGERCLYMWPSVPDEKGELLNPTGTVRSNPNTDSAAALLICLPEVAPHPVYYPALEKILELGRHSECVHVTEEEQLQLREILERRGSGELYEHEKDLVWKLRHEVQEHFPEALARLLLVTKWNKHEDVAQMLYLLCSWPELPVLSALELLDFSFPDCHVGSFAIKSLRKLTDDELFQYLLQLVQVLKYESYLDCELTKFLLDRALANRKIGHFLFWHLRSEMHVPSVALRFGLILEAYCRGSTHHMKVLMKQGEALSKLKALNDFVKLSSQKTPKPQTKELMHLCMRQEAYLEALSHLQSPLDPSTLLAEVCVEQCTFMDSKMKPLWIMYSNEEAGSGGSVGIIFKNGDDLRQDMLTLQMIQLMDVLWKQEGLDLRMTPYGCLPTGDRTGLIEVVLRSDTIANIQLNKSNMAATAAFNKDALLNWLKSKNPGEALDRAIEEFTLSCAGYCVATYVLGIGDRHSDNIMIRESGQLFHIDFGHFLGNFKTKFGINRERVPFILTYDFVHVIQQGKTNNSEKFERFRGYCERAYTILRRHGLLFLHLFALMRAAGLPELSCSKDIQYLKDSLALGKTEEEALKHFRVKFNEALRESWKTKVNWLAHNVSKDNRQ
Sequence of human phosphoinositide-3 kinase (PI3K) delta (Q63787 whole entry partner): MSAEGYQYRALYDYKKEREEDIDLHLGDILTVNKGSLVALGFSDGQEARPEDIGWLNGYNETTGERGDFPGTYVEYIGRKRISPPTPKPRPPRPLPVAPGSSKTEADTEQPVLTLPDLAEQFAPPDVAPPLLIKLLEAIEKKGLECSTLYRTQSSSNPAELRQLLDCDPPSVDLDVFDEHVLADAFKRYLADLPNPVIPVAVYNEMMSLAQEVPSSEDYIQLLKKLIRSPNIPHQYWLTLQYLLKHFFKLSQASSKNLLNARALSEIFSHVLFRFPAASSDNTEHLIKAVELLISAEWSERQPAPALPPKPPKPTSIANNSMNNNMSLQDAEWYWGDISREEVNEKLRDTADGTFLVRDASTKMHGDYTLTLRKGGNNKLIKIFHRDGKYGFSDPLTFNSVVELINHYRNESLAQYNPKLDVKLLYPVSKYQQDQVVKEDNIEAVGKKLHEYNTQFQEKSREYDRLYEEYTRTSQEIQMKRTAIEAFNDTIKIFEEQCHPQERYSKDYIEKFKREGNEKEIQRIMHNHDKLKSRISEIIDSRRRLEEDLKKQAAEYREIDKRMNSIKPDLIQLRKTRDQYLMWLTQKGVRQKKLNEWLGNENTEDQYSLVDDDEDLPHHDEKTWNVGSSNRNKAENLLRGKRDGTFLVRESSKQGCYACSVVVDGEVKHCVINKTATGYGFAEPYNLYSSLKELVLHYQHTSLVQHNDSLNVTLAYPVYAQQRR

IC50 (murine B cells)	IC50 (PI3K delta)	IC50 [1]	IC50 (PI3K alpha; enzymatic assay)	Compound	IC50 (PI3K alpha)	Plaques/spleen [2]
94.9 nM	–	153 nM	–	COc1ncc(N2CCc3ncnc(O[C@H]4CCN(C(=O)C5CCOCC5)C4)c3C2)cc1C [Example 1, {(S)-3-[6-(6-Methoxy-5-methyl-pyridin-3-yl)-5,6,7,8-tetrahydro-pyrido[4,3-d]pyrimidin-4-yloxy]-pyrrolidin-1-yl}-(tetrahydro-pyran-4-yl)-methanone]	–	12608 ± 4986
86.5 nM	20 nM	246 nM	651 nM	CCC(=O)N1CC[C@H](Nc2ncnc3c2CN(c2cnc(OC)c(C)c2)CC3)C1 [Example 81, 1-{(S)-3-[6-(6-Methoxy-5-methyl-pyridin-3-yl)-5,6,7,8-tetrahydro-pyrido[4,3-d]pyrimidin-4-ylamino]-pyrrolidin-1-yl}-propan-1-one]	–	–
46.2 nM	3 nM	116 nM	66 nM	COc1ncc(N2CCc3ncnc(N[C@H]4CCN(C(=O)C5CCOCC5)C4)c3C2)cc1Cl [Example 82, {(S)-3-[6-(5-Chloro-6-methoxy-pyridin-3-yl)-5,6,7,8-tetrahydro-pyrido[4,3-d]pyrimidin-4-ylamino]-pyrrolidin-1-yl}-(tetrahydro-pyran-4-yl)-methanone]	–	–
14.9 nM	7 nM	53 nM	43 nM	COc1ncc(N2CCc3ncnc(N[C@H]4CCN(C(=O)C5CCOCC5)C4)c3C2)cc1C(F)(F)F [Example 68, {(S)-3-[6-(6-Methoxy-5-trifluoromethyl-pyridin-3-yl)-5,6,7,8-tetrahydro-pyrido[4,3-d]pyrimidin-4-ylamino]-pyrrolidin-1-yl}-(tetrahydro-pyran-4-yl)-methanone]	–	–
120 nM	48 nM	254 nM	1840 nM	COc1ncc(N2CCc3ncnc(O[C@H]4CCN(C(=O)c5cn(C)cn5)C4)c3C2)cc1C [Example 20, {(S)-3-[6-(6-Methoxy-5-methyl-pyridin-3-yl)-5,6,7,8-tetrahydro-pyrido[4,3-d]pyrimidin-4-yloxy]-pyrrolidin-1-yl}-(1-methyl-1H-imidazol-4-yl)-methanone]	–	–

More lines, now with the values behind:

Compound	IC50 (murine B cells)	IC50 (PI3K delta)	IC50 [1]	IC50 (PI3K alpha; enzymatic assay)	IC50 (PI3K alpha)	Plaques/spleen [2]
COc1ncc(N2CCc3ncnc(N[C@H]4CCN(C(=O)C5CCOC(C)(C)C5)C4)c3C2)cc1C(F)(F)F (stereo partly drawn) [Example 71, (2,2-Dimethyl-tetrahydro-pyran-4-yl)-{(S)-3-[6-(6-methoxy-5-trifluoromethyl-pyridin-3-yl)-5,6,7,8-tetrahydro-pyrido[4,3-d]pyrimidin-4-ylamino]-pyrrolidin-1-yl}-methanone]	24.7 nM	3 nM	35 nM	–	57 nM	–
COc1ncc(N2CCc3ncnc(O[C@H]4CCN(c5ccccn5)C4)c3C2)cc1C(F)(F)F [Example 65, 6-(6-Methoxy-5-trifluoromethyl-pyridin-3-yl)-4-((S)-1-pyridin-2-yl-pyrrolidin-3-yloxy)-5,6,7,8-tetrahydro-pyrido[4,3-d]pyrimidine]	570 nM	23 nM	191 nM	738 nM	–	–
COc1cc(N2CCc3ncnc(O[C@H]4CCN(C(=O)C5CCOCC5)C4)c3C2)cnc1OC [Example 5, {(S)-3-[6-(5,6-Dimethoxy-pyridin-3-yl)-5,6,7,8-tetrahydro-pyrido[4,3-d]pyrimidin-4-yloxy]-pyrrolidin-1-yl}-(tetrahydro-pyran-4-yl)-methanone]	125 nM	20 nM	455 nM	749 nM	–	–
COc1ncc(N2CCc3ncnc(O[C@H]4CCN(C(=O)c5oc(C)nc5C)C4)c3C2)cc1C#N [Example 28, 5-{4-[(S)-1-(2,4-Dimethyl-oxazole-5-carbonyl)-pyrrolidin-3-yloxy]-7,8-dihydro-5H-pyrido[4,3-d]pyrimidin-6-yl}-2-methoxy-nicotinonitrile]	71.6 nM	4 nM	268 nM	1210 nM	–	–
